Marks after values point to notes of the source that are not given here. No end group written: not given here. *: point of attachment. dPhe(β-Ph) = β-phenyl D-Phe (N-terminal, N-acetylated), CC(=O)N[C@@H](C(=O)*)C(c1ccccc1)c1ccccc1
What was measured:
ECE-1 [1] = target: T1, ECE-1 (Homo sapiens, UniProt P42892); test: ECE-1 activity in plasma membrane fraction of HNPE cells (conversion of 125I Big ET-1 to 125I ET-1); type: biochemical
T1 construct: The endogenous ECE from the plasma membrane fraction converted the; endogenous in cells; host or cells: HNPE cells (human non-pigmented ciliary epithelial), plasma membrane fraction
T1 sequence (P42892 1-770): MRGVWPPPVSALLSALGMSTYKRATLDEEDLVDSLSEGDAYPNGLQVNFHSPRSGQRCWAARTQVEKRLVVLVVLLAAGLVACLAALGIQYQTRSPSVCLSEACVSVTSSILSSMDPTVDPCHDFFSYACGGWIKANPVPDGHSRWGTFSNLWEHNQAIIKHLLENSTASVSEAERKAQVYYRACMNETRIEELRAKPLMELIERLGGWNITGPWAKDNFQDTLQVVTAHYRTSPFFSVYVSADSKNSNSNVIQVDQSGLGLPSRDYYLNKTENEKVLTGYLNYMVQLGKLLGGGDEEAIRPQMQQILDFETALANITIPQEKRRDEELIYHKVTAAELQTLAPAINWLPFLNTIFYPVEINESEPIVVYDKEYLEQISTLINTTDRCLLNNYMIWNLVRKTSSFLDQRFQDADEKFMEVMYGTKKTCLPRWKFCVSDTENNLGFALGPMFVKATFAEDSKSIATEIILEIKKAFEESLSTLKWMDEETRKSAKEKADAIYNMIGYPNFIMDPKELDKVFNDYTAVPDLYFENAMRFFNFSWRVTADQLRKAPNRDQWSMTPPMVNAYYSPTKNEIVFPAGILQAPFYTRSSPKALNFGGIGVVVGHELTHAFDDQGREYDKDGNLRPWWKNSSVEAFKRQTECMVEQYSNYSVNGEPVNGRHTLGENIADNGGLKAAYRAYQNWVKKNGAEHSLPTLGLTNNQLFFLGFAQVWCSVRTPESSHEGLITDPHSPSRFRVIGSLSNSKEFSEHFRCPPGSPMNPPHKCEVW
Method: (§1) Fractions were incubated at 37° C. and collected at various time periods ranging from 5 minutes to 24 hours. […] Values represent the mean±SEM for data obtained from replicate samples. Statistical significance of mean [ET-1] among different time periods in HNPE cells as determined by one-way ANOVA and Student-Newman-Keuls multiple comparison test at p<0.05 (5 min n=3; 10 min n=6; 180 min n=9; 24 hrs n=4). Values that were statistically different are identified with an asterisk (“*”). Statistical significance of mean [ET−1] among different time periods in rat lung tissue as determined by one-way ANOVA and Student-Newman-Keuls multiple comparison test at p<0.05 (n=6 for 180 minutes; n=4 for other time periods) and denoted with a cross (“†”). It should be noted that the regression analysis (“r^2”) and line equation (“y=m×+b”) for percent ECE-1 activity were calculated based on a line graph with equal scale on the X axis ranging from 0-1500 minutes.
(§2) Briefly, plasma membrane fractions (e.g. 20 μg total protein) of HNPE cells and rat lung tissue were incubated with 80 fmoles/mg protein of ^125I Big ET-1 for 180 minutes. […] However, each of the samples was divided into two groups: a control; and the CGS 26303 treated group. […] The data were analyzed statistically by one-way ANOVA, and those values that show a significant difference (p<0.05 level) are identified with an asterisk (*).

ECE-1 [2] = target: T2, ECE-1 (Rattus norvegicus, UniProt P42893); test: ECE-1 activity in plasma membrane fraction of rat lung tissue (conversion of 125I Big ET-1 to 125I ET-1); type: biochemical
T2 construct: The endogenous ECE from the plasma membrane fraction converted the; from tissue; host or cells: rat lung tissue, plasma membrane fraction
T2 sequence (P42893 1-762): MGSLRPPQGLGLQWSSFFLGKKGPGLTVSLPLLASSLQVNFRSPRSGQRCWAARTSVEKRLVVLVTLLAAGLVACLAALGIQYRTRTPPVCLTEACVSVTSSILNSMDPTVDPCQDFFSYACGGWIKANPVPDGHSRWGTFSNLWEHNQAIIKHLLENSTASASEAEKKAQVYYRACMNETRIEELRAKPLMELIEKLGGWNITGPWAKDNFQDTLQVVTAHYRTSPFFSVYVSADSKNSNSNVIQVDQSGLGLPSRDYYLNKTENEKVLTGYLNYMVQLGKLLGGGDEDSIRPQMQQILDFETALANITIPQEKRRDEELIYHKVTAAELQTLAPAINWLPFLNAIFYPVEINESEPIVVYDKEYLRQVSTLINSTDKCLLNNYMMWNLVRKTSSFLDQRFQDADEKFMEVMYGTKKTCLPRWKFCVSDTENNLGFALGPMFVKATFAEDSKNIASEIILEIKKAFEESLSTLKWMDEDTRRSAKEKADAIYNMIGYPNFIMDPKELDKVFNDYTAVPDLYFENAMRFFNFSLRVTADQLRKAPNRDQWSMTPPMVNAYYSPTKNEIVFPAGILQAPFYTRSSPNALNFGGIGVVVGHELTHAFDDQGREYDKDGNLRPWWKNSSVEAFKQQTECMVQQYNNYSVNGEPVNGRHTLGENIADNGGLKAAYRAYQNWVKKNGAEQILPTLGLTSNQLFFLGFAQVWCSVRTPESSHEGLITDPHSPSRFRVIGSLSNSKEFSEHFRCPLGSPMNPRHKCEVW
Method: as §1, §2

rat optic nerve = test: Anterograde axonal transport in rat optic nerve after intravitreal injection (35S-methionine pulse label); type: in vivo; conditions: 28 hour ISI, 2 mmol dose, p>0.999, ANOVA, N=7
Source text: Newly synthesized proteins undergoing anterograde axonal transport in the optic nerve were pulse-labeled in either the presence or absence of endothelin as modified from previously published methods (van Biesen et al., 1995). Modifications to previously published methods were minimal and involved the replacement of a distilled water vehicle for resuspension of radiolabeled precursors with either HEPES buffered ET-1 or HEPES vehicle buffer alone. ^35S-Methionine (Easytag EXPRESS PROTEIN LABELING MIX, Dupont-NEN Life Sciences, Boston, Mass.) was lyophilized and resuspended in either vehicle alone (10 mM HEPES, pH 7.4, Sigma Chemical Co., St Louis, Mo.) or in vehicle containing 500 μM ET-1 (Bachem, Belmont, Calif.). Rats were anesthetized by Metofane inhalation, and 0.8 mCi (4 μl) of radiolabel in vehicle either plus or minus ET-1 (final dose 2 mmols), was injected into the vitreous of the left eye using a 30 gauge needle attached to a Hamilton syringe (microliter #710, 22s gauge, Hamilton Co., Reno, Nev.) by polyethylene tubing (PE-20, Clay Adams Brand, Becton Dickson and Co., Sparks, Md.) (van Biesen et al., 1995). In one experiment, ET-3 was substituted for ET-1, using the same methods (2 mmol dose, 28 hour ISI, N=7 for controls, N=7 for experimentals). […] One minute after injection, all retinas appeared normal in color. (Based upon these initial observations, further observations of the retinas were not performed). Information on the dose-related effect(s) of intravitreal ET-1 in this species (i.e. rat) were unavailable, and physiological/pathological concentrations of endothelin in the optic nerve head's microenvironment are generally unknown. Therefore, dose selection was made on the basis of a small pilot study, using these methods and measuring the total pulse-labeled protein axonally transported into the rat optic nerve. (An N of 3 rats in every group was used only for the pilot study, 4 hour ISI, data not shown). […] However, significant effects on axonal transport (4 hour ISI) were only seen in the pilot study for the 2 mmol dose. […] Possible effect(s) on non-assayed ocular tissues were not considered in dose selection, as data on these were unavailable for either acute or chronic intravitreal ET-1 administration, in rats.
This technique was employed to determine if endothelin-1 also affected the axonal transport in the optic nerve of rats, which is severely compromised in glaucoma. Harvest and preparation of pulse-labeled optic nerves in animals, wherein animals were anesthetized with metofane at specified times after injection and sacrificed by decapitation. Injection-sacrifice intervals were selected based upon the published characterizations of anterograde axonal transport in rat optic nerve for specific marker proteins associated with specific classes of axonally transported materials (Table 4) (Elluru et al., 1995; Garner and Lasek, 1981; Garner and Lasek, 1982; Jahn et al., 1985). Seven vehicle-treated animals and seven endothelin-treated animals were sacrificed at each of the specified times (4, 24, 28, 32, 36 hours and 4, 21 days). Optic nerves were removed, flash frozen with crushed dry ice, and sectioned frozen. Nerves were sectioned to aid complete homogenization, and to provide additional data for future studies. The frozen sections (2 mm in length) were numbered as segments 1-4 (from proximal to distal), and glass-on glass homogenized in 100 μlof BUST sample buffer (2% β-mercaptoethanol, 8M urea, 1% SDS, 0.1M Tris, 0.02% phenol red, pH 7.4). A 25% aliquot of each homogenized segment was counted in a liquid scintillation counter, and counts were corrected for decay, quench, and counting efficiency.

[3] = test system: human non-pigmented ciliary epithelial (HNPE) cells; test: Nitric oxide release from HNPE cells (nitrite, Griess colorimetric assay); type: cell-based; conditions: pre-treated with PD-142893 (1 μM) 30 minutes, then 100 nM ET-1, 24 hours; vs ET-1 alone
Method: The effect of endothelin-1 (ET-1) and PD-142893, an ETA/B receptor antagonist, on nitric oxide (“NO”) release from human non-pigmented ciliary epithelial (HNPE) cells are illustrated in FIG. 6. The NO released into the culture media from HNPE cells grown in 24-well plates and treated with ET-1 (100 nM) for 24 hours was converted to nitrites. The total amount of nitrites was measured using the Griess colorimetric assay. HNPE cells were pre-treated with PD-142893 (1 μM) for 30 minutes and then 100 nM ET-1 was also added and incubated for 24 hours. The values in FIG. 6 represent the mean±SEM of a ratio between the nitrite produced under experimental conditions divided by the nitrite produced in control cells, which corresponded to 14.4±1.8 μM and controls were expressed as 100% (n=3). Statistical significance of the nitrite released from ET-1 (100 nM) treatment versus the control are denoted with an asterisk (“*”). Statistical significance of the nitrite released from PD-142893+ET-1 (100 nM) treatment versus that of ET-1 (100 nM) are denoted as a double asterisk (“**”) The statistical differenced were determined by one-way ANOVA and Student-Newman-Keuls multiple comparison test (p<0.05). Thus, addition of ET-1 increased the nitrite levels nearly 2-fold when compared to control cells or cells treated with PD-142893.

## O=P(O)(O)CN[C@@H](Cc1ccc(-c2ccccc2)cc1)c1nn[nH]n1 [CGS 26303]
ECE-1 [1]; HNPE cells plasma membrane fraction, 100 μM CGS-26303, 180 min, 37° C., control 27 ± 1
  fmoles 125I ET-1 produced/mg protein/180 min: 12 ± 2* fmoles ^125I ET-1 produced/mg protein/180 min
ECE-1 [1]; HNPE plasma membrane fraction, 180 minute time period, vs control
  decrease in 125I ET-1 production: 55%
ECE-1 [2]; rat lung plasma membrane fraction, 180 minutes, vs control
  decrease in 125I ET-1: 56%
ECE-1 [2]; rat lung tissue plasma membrane fraction, 100 μM CGS-26303, 180 min, 37° C., control 25 ± 1
  fmoles 125I ET-1 produced/mg protein/180 min: 11 ± 4* fmoles ^125I ET-1 produced/mg protein/180 min

## ET-3: ETB-receptor-selective agonist, endothelin isopeptide (CTCFTYKDKECVYYCHLDIIW; ends and bridges not checked; cysteine pairing not given here; UniProt P14138 97-117, looked up)
Rat optic nerve
  effect of intravitreal ET-3 on anterograde axonal transport compared with ET-1: no significant difference between ET-1 and ET-3

## N-Acetyl-b-phenyl D-Phy-Leu-Asp-Ile-Ile-Trp ({Ac-dPhe(β-Ph)}-LDIIW) [PD-142893, ETA/B receptor antagonist]
[3]
  nitrite production, PD-142893 + ET-1: decrease in nitrite production
